This note sets out measurements from ChEMBL document CHEMBL1201862, “PubChem BioAssay data set” (2004).

Among the test systems are U-251; HCT-116; SNB-75; SK-MEL-2; OVCAR-3; Hs-578T; IGROV-1; A498; EKVX; COLO 205; CCRF-CEM; NCI-H226; SK-MEL-5; UACC-257; HL-60; HCC 2998; OVCAR-4; NCI/ADR-RES; SF-295.
Common to all, as to test: DTP human tumour cell line panel, 48 h

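Results reflect a 48-hour exposure of cells in 96-well plates to compound at five concentrations. At the GI50, growth is halved.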 Calls of active or inactive are those of the source. Cut-off read from the data, not from the text of the source: active = GI50 up to about 1.1 µM and inactive = higher. Bounds are passed on as bounds.

One may read the GI50 as the concentration at which growth is held to half of that of the control.

Turning to `CCCCC1Cc2cc(O)ccc2-c2n1c1cc(O)ccc1[n+]2C.CCCCC1Cc2cc(O)ccc2-c2n1c1ccc(O)cc1[n+]2C` (stereo not given), the GI50 with U-251 was 1.1 µM (active); in the test on HCT-116, 36.9 µM (inactive); in the test on SNB-75 it was 12.7 µM (inactive); with SK-MEL-2, 32.7 µM (inactive); in the test with OVCAR-3, 10.7 µM (inactive); in the test on Hs-578T, 5.47 µM (inactive). The GI50 in the test on IGROV-1 was 25.9 µM (inactive); with A498, 31.9 µM (inactive); in the test on EKVX, 0.476 µM (active); in the test on COLO 205, 18.3 µM (inactive); in the test with CCRF-CEM it was 9.59 µM (inactive); with NCI-H226, 41 µM (inactive). For the same compound, the GI50 with SK-MEL-5 was 4.05 µM (inactive); in the test with UACC-257, 11.6 µM (inactive); in the test on HL-60 it was 26.1 µM (inactive); with HCC 2998, 28.2 µM (inactive); in the test on OVCAR-4 it was 27.7 µM (inactive); in the test with NCI/ADR-RES, > 100 µM (inactive). Besides, the GI50 with SF-295 is 4.82 µM (inactive).
Regarding `O=[N+]([O-])c1cccc(-c2csc(N/N=C3\NC/C(=C/c4ccc5c(c4)OCO5)S3)n2)c1`, the GI50 with U-251 is 33.4 µM (inactive); in the test on HCT-116 it was 30.6 µM (inactive); with SNB-75 it was 15.4 µM (inactive); with SK-MEL-2, 22.1 µM (inactive); with OVCAR-3, 30.3 µM (inactive); in the test on Hs-578T, 24.2 µM (inactive). The GI50 in the test with IGROV-1 was 21 µM (inactive); with A498, 15.2 µM (inactive); in the test on EKVX, 9.02 µM (inactive); in the test with COLO 205, 28.4 µM (inactive); in the test with CCRF-CEM, 35.4 µM (inactive); with NCI-H226 it was 16.6 µM (inactive). The GI50 was 17.3 µM (inactive) in the test with SK-MEL-5; 35.9 µM (inactive) in the test with UACC-257; 26.6 µM (inactive) in the test with HL-60; 31.9 µM (inactive) in the test on HCC 2998; 27.9 µM (inactive) in the test with OVCAR-4; 19.6 µM (inactive) in the test on NCI/ADR-RES. For the same compound, in the test with SF-295, the GI50 was 35 µM (inactive).
As to `CCc1cccc(C(C)(C)C)c1NC(=S)N/C=C(/C#N)C(N)=O`, the GI50 in the test on U-251 is > 100 µM (inactive); in the test on HCT-116, > 100 µM (inactive); with SNB-75, 30.9 µM (inactive); in the test with SK-MEL-2, > 100 µM (inactive); in the test on OVCAR-3, 92.7 µM (inactive); in the test with Hs-578T, 83 µM (inactive). In addition, the GI50 with IGROV-1, in the test on A498, with EKVX, with COLO 205, in the test on CCRF-CEM and in the test on NCI-H226 was > 100 µM (inactive) in each case. The GI50 in the test with SK-MEL-5 was > 100 µM (inactive); in the test on UACC-257, > 100 µM (inactive); in the test with HL-60, 93.1 µM (inactive); in the test on HCC 2998, > 100 µM (inactive); in the test on OVCAR-4, > 100 µM (inactive); with NCI/ADR-RES, > 100 µM (inactive). Also, the GI50 in the test with SF-295 was > 100 µM (inactive).
For `CCOC(=O)/C(C#N)=C/c1ccc2c(c1)CC1(C2)Cc2cc(CC)c(C(C)O)cc2C1` (stereo not given), the GI50 with U-251 was 6.35 µM (inactive); in the test with HCT-116, 4.27 µM (inactive); in the test with SNB-75 it was 8.38 µM (inactive); with SK-MEL-2, 7.21 µM (inactive); in the test on OVCAR-3, 8.04 µM (inactive); in the test on Hs-578T it was 10 µM (inactive). Also, the GI50 in the test on IGROV-1 is 23 µM (inactive); with A498, 25.8 µM (inactive); in the test with EKVX it was 57.5 µM (inactive); in the test with COLO 205, 25.2 µM (inactive); in the test on CCRF-CEM it was 4.61 µM (inactive); in the test with NCI-H226, 19.3 µM (inactive). In addition, the GI50 is 4.78 µM (inactive) in the test on SK-MEL-5; 15.8 µM (inactive) in the test on UACC-257; 3.03 µM (inactive) in the test on HL-60; 16.3 µM (inactive) in the test on HCC 2998; 9.59 µM (inactive) in the test on OVCAR-4; 8.77 µM (inactive) with NCI/ADR-RES. In addition, the GI50 in the test with SF-295 is 15.7 µM (inactive).
In the case of `COC1(OC)CCCc2c1no[n+]2[O-]`, the GI50 is > 100 µM (inactive) with U-251; > 100 µM (inactive) with HCT-116; 79.4 µM (inactive) in the test with SNB-75; > 100 µM (inactive) with SK-MEL-2; > 100 µM (inactive) in the test with OVCAR-3; > 100 µM (inactive) in the test on Hs-578T. Also, the GI50 in the test with IGROV-1, in the test with A498, in the test on EKVX, in the test with COLO 205, in the test with CCRF-CEM and in the test with NCI-H226 was > 100 µM (inactive) in each case. Besides, the GI50 with SK-MEL-5, in the test on UACC-257, in the test on HL-60, with HCC 2998, in the test with OVCAR-4 and in the test on NCI/ADR-RES was > 100 µM (inactive) in each case. Besides, the GI50 with SF-295 was > 100 µM (inactive).
Consider `CC(=O)OCCc1cc2ccccc2oc1=O`, for which the GI50 in the test on U-251, with HCT-116, with SNB-75, in the test with SK-MEL-2, in the test with OVCAR-3 and with Hs-578T was > 100 µM (inactive) each time. The GI50 in the test with IGROV-1 was > 100 µM (inactive); in the test with A498, > 100 µM (inactive); in the test on EKVX, 86.7 µM (inactive); with COLO 205 it was > 100 µM (inactive); with CCRF-CEM, > 100 µM (inactive); in the test on NCI-H226, > 100 µM (inactive). In addition, the GI50 in the test on SK-MEL-5, with UACC-257, in the test on HL-60, with HCC 2998, in the test with OVCAR-4 and in the test on NCI/ADR-RES was > 100 µM (inactive) throughout. For the same compound, the GI50 in the test on SF-295 was > 100 µM (inactive).
On to `CC1OC(OC2C(O[C@H]3CC[C@@]4(C)C(=CC[C@H]5[C@@H]6C[C@@H]7O[C@]8(CC[C@@H](C)CO8)[C@@H](C)[C@@H]7[C@@]6(C)CC[C@@H]54)C3)OC(CO)C(O)C2O)C(O)C(O)C1O` (stereo not given in full), for which the GI50 was 0.544 µM (active) in the test on U-251; 1.54 µM (inactive) in the test with HCT-116; 1.24 µM (inactive) with SNB-75; 2.63 µM (inactive) in the test with SK-MEL-2; 3.4 µM (inactive) in the test with OVCAR-3; 1.86 µM (inactive) in the test with Hs-578T. The GI50 is 2.8 µM (inactive) in the test with IGROV-1; 1.51 µM (inactive) in the test on A498; 3.1 µM (inactive) in the test on EKVX; 2.95 µM (inactive) with COLO 205; 0.507 µM (active) with CCRF-CEM; 2.49 µM (inactive) with NCI-H226. Further, the GI50 was 3.97 µM (inactive) with SK-MEL-5; 1.8 µM (inactive) with UACC-257; 0.74 µM (active) in the test on HL-60; 1.11 µM (active) with HCC 2998; 1.22 µM (inactive) in the test with OVCAR-4; 1.99 µM (inactive) in the test with NCI/ADR-RES. In addition, the GI50 in the test with SF-295 is 1.15 µM (inactive).
For `FC(F)(F)c1ccc(C2ON=C(c3ccccc3)N2C23CC4CC(CC(C4)C2)C3)cc1` (stereo not given), the GI50 in the test with U-251, with HCT-116, in the test with SNB-75, in the test on SK-MEL-2, in the test on OVCAR-3 and in the test with Hs-578T was > 10 µM (inactive) in each case. The GI50 in the test with IGROV-1, in the test on A498, in the test on EKVX, with COLO 205, in the test on CCRF-CEM and in the test on NCI-H226 was > 10 µM (inactive) each time. The GI50 in the test on SK-MEL-5, with UACC-257, with HL-60, in the test with HCC 2998, in the test with OVCAR-4 and in the test with NCI/ADR-RES was > 10 µM (inactive) in each case. Further, the GI50 in the test with SF-295 is > 10 µM (inactive).
Turning to `CN(O)C(=O)Cc1ccc(OCc2cccc(Cl)c2)cc1`, the GI50 in the test with U-251, with HCT-116, in the test with SNB-75, with SK-MEL-2, with OVCAR-3 and with Hs-578T was > 100 µM (inactive) each time. For the same compound, the GI50 in the test with IGROV-1 is > 100 µM (inactive); with A498 it was 1.23 µM (inactive); in the test on EKVX it was > 100 µM (inactive); in the test on COLO 205 it was > 100 µM (inactive); in the test with CCRF-CEM it was > 100 µM (inactive); in the test with NCI-H226 it was > 100 µM (inactive). For the same compound, the GI50 in the test with SK-MEL-5, with UACC-257, with HL-60, with HCC 2998, in the test with OVCAR-4 and with NCI/ADR-RES was > 100 µM (inactive) each time. Further, the GI50 in the test on SF-295 was > 100 µM (inactive).
As for `CCN(CC)CCNc1ccc2ncn3c4cc(OC)c(OC)c(O)c4c(=O)c1c23`, the GI50 was 12.9 µM (inactive) with U-251; 0.556 µM (active) with HCT-116; 2.78 µM (inactive) in the test on SNB-75; 20.4 µM (inactive) in the test with SK-MEL-2; 13 µM (inactive) in the test on OVCAR-3; 13.2 µM (inactive) in the test on Hs-578T. In addition, the GI50 with IGROV-1 was 12.5 µM (inactive); in the test on A498 it was 15.5 µM (inactive); in the test on EKVX, 16 µM (inactive); with COLO 205, 1.33 µM (inactive); in the test with CCRF-CEM, 0.897 µM (active); with NCI-H226 it was 12.3 µM (inactive). The GI50 in the test with SK-MEL-5 is 15.5 µM (inactive); in the test with UACC-257, 22.9 µM (inactive); with HL-60, 11 µM (inactive); in the test on HCC 2998 it was 10.5 µM (inactive); in the test on OVCAR-4, 4.9 µM (inactive); with NCI/ADR-RES, 3.94 µM (inactive). For the same compound, in the test on SF-295, the GI50 was 10.4 µM (inactive).
